How the values were obtained:
[1] = Clinical chemistry and hematology in rat 48 h after intravenous 2 mpk dose; format: in vivo; details: 48 h post dose
Method: Sample formulations of nanoparticle compositions including different lipids were administered intravenously to rat at a dose of 2 mpk. The expression of various clinical markers was evaluated at 48 h post dose and compared to that induced by administration of MC3 formulations or phosphate buffered saline (PBS).

[2] = tested on: mRNA encoding anti-HA antibody; assay: Anti-HA (anti-hemagglutinin) antibody expression after intravenous infusion to cynomolgus monkeys; format: in vivo; details: iv infusion 60 minutes
Method: FIGS. 11A and 11B show the results of anti-HA (anti-hemagglutinin) antibody expression measured after intravenous administration of various nanoparticle compositions including MC3 and Compound 18 at a 0.1 mpk (FIG. 11A) or 0.3 mpk (FIG. 11B) dose with 60 minutes infusion to naive cynomolgus monkeys.
FIGS. 31A-31C is a series of graphs illustrating the expression profile for lipid nanoparticles of the disclosure in a cynomolgus money study. FIG. 31A illustrates hEPO serum concentrations after delivery of 0.01 mg/kg hEPO mRNA in MC3 or Compound 18. The liquid nanoparticles were administered intravenously, via a 60 min. infusion (n=3). p<0.05 for Compound 18 AUC relative to MC3.
FIG. 36 is a graph illustrating Human IgG expression in a cynomolgus monkey administered with 0.1 mg/kg human IgG mRNA in a composition comprising MC3 or compound 18, intravenously via a 60 min. infusion (n=3).
Results of hEPO expression studies were validated using a standard MC3 formulation and a nanoparticle composition containing Compound 18 including an mRNA encoding an anti-hemagglutinin (anti-HA) antibody. Cynomolgus monkeys were administered a single dose of 0.1 mpk or 0.3 mpk of nanoparticle composition containing Compound 18 (see Table 33; prepared according to Example 2) including an mRNA encoding anti-HA antibody via intravenous infusion for 60 minutes.

[3] = Chemical stability of lipids in ethanol at room temperature and 37° C. (lipid purity); format: physicochemical
Method: Ester linkages were previously reported to trigger metabolism by esterases in vivo. (See Fukami, T. et al. Drug Metab. Pharmacokinet. 2012, 27, 466-477, the content of which is incorporated by reference herein in its entirety). […] (See Maier M. A., Mol. Ther. 2013, 21, 1570-1578, the content of which is incorporated herein in its entirety) First, the chemical stability of the lipids was evaluated by measuring ethanol stability at room temperature and 37° C. (Table 39). […] LNPs formed with compound 138 were larger, with a surface pKa>7. […] Removal of one ester function (compound 136) afforded LNPs with improved physiochemical characteristics and lower LNP surface pKa.

CD-1 mouse liver = assay: Lipid remaining in mouse liver tissue 24 h post dose (LC-MS/MS); format: in vivo; details: CD-1 mouse liver 24 h after 0.5 mg/kg bolus dose mRNA, n = 5 ± S.D.
Method: LNP administration to animals: mRNA-LNPs diluted in phosphate buffered saline (PBS) were injected intravenously (5 mL/kg) into female CD-1 female mice (18 to 22 g in body weight) and male Sprague-Dawley rats (225-250 g in body weight) via the tail vein using 29 g, 3/10 cc insulin syringes (mice) or 27 g, 1 mL syringes (rats) after gentle warming of the animals using a heat lamp for 3 minutes.
Quantification of Lipid by LC-MS/MS: Liver samples were homogenized following addition of 19 eq. […] Protein was precipitated and analyzed against calibration standards prepared in matching blank. Chromatographic separation and quantification was accomplished with a LC-MS/MS System. Samples were injected and separated via HPLC A triple-quadrupole MS/MS system operated in positive ion mode was used for signal detection.

luciferase (Luc) mRNA = assay: Luciferase expression (whole body bioluminescence) after intravenous administration to mice; format: in vivo; details: for Fold increase in Luc expression over MC3 upon intravenous administration: higher doses than the intramuscular data; for Fold increase in Luc expression over MC3 upon intravenous administration / Novel lipid/MC3 expression ratio, i.v. / Total Flux 3 hours / Total Flux 6 hours / Total Flux 24 hours: intravenous; for Novel lipid/MC3 expression ratio, i.v.: luciferase, 6 hr. time point, relative to MC3 formulation; for Total Flux 3 hours / Total Flux 6 hours / Total Flux 24 hours: mice (n=6), 0.5 mg/kg
In short: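 Luc mRNA nanoparticles were given IV at 0.5 mg/kg to groups of six mice, and whole-body bioluminescent flux was imaged 3, 6 and 24 h post-dose. Flux AUC for each lipid formulation was reported as a ratio to the MC3 reference formulation.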

[4] = intravenous administration (Table 3D)

| Compound | Concentration, Alanine aminotransferase [1] | Concentration, Aspartate aminotransferase [1] | Concentration, Lymphocytes [1] | Concentration, Monocytes [1] | Concentration, Neutrophils [1] | Lipid Purity, t = 96 h, 25° C. [3] [%] | Lipid Purity, t = 96 h, 37° C. [3] [%] | Lipid Purity, t = 0 [3] [%] | other results |
| --- | --- | --- | --- | --- | --- | --- | --- | --- | --- |
| CCCCCCCCCN(CCO)CCCCCCCC(=O)OC(CCCCCCCC)CCCCCCCC [Compound 3, Heptadecan-9-yl 8-((2-hydroxyethyl)(nonyl)amino)octanoate] | 53.5 | 87.5 | 12051 | 2103 | 3388.5 | – | – | – | – |
| CCCCCCCCCOC(=O)CCCCCCCN(CCO)CCCCCCCC(=O)OC(CCCCCCCC)CCCCCCCC [Compound 18, Heptadecan-9-yl 8-((2-hydroxyethyl)(8-(nonyloxy)-8-oxooctyl)amino)octanoate] | – | – | – | – | – | 94.71 | 95.01 | 94.37 | AUC (anti-HA antibody expression) ([2]; Dose 0.1 mpk): 354.3 µg·h/mL; AUC (anti-HA antibody expression) ([2]; Dose 0.3 mpk): 1055 µg·h/mL; % dose remaining Mouse liver tissue, 24 h (CD-1 mouse liver): no lipid detected at 24 h; Fold increase in Luc expression over MC3 upon intravenous administration (luciferase (Luc) mRNA): highest fold increase |
| CCCCCC/C=C\COC(=O)CCCCCCCN(CCO)CCCCCCCC(=O)OC(CCCCCCCC)CCCCCCCC [Compound 24, Heptadecan-9-yl (Z)-8-((2-hydroxyethyl) (8-(non-2-en-1-yloxy)-8-oxooctyl)amino)octanoate] | 51.5 | 90 | 14100 | 1834 | 1790.5 | – | – | – | – |
| CCCCCCCCCCCOC(=O)CCCCCN(CCO)CCCCCCCC(=O)OC(CCCCCCCC)CCCCCCCC [Compound 25, Heptadecan-9-yl 8-((2-hydroxyethyl)(6-oxo-6-(undecyloxy)hexyl)amino)octanoate] | 52 | 124.5 | 15924 | 2122 | 1998 | 96.23 | 96.13 | 95.58 | – |
| CCCCCCCCCOC(=O)CCCN(CCO)CCCCCCCC(=O)OC(CCCCCCCC)CCCCCCCC [Compound 26, Heptadecan-9-yl 8-((2-hydroxyethyl)(4-(nonyloxy)-4-oxobutyl)amino) octanoate] | – | – | – | – | – | 97.38 | 95.72 | 98.64 | Fold increase in Luc expression over MC3 upon intravenous administration (luciferase (Luc) mRNA): highest fold increase |
| CCCCCCCCCOC(=O)CCCCCCCN(CCO)CCCCCCCOC(=O)C(CCCCCCCC)CCCCCCCC [Compound 30, 7-((2-Hydroxyethyl)(8-(nonyloxy)-8-oxooctyl)amino)heptyl 2-octyldecanoate] | 56 | 95 | 10408.5 | 877 | 3195 | – | – | – | – |
| CCCCCCCCC(C)OC(=O)CCCCCCCN(CCO)CCCCCCCC(=O)OC(CCCCCCCC)CCCCCCCC (stereo not drawn) [Compound 48, decan-2-yl 8-((8-(heptadecan-9-yloxy)-8-oxooctyl)(2-hydroxyethyl)amino)octanoate] | – | – | – | – | – | – | – | – | Novel lipid/MC3 expression ratio, i.v. (luciferase (Luc) mRNA): 10.0 |
| CCCCCC=CCC=CCCCCCCCCC(CCCCCCCCC=CCC=CCCCCC)OC(=O)CCCN(C)C (stereo not drawn) [MC3, heptatriaconta-6,9,28,31-tetraen-19-yl 4-(dimethylamino)butanoate, reference compound] | 339 | 325 | 19976 | 1429 | 4962.5 | – | – | – | AUC (anti-HA antibody expression) ([2]; Dose 0.1 mpk): 77.05 µg·h/mL; AUC (anti-HA antibody expression) ([2]; Dose 0.3 mpk): 235.7 µg·h/mL; % dose remaining Mouse liver tissue, 24 h (CD-1 mouse liver): 71 ± 27%; Lipid/MC3 Luc expression (luciferase (Luc) mRNA; 0.5 mpk dose to mouse, 6 hours after administration): 1; Average total flux (6 h, ffluc) (luciferase (Luc) mRNA; 6 h, ffluc): 6.59 × 10^9; Fold increase in average total flux relative to MC3 (luciferase (Luc) mRNA; 6 h, ffluc): 1; AUC (luciferase (Luc) mRNA; i.v. administration (Table 3C)): 8.24E+10 h*p/s; Fold increase AUC Lipid/MC3 (luciferase (Luc) mRNA; i.v. administration (Table 3C)): 1; Fold increase in total body Luc Flux relative to MC3 at 6 h (luciferase (Luc) mRNA; i.v. administration, 6 h): 1.00; 6 h Lipid/MC3 Avg. Luc Expression (luciferase (Luc) mRNA; i.v. administration, 6 h (Table 3C)): 1; AUC (luciferase (Luc) mRNA; [4]): 1.909E+011 p/s*h; Lipid/MC3 AUC (luciferase (Luc) mRNA; [4]): 1; Total Flux 3 hours (luciferase (Luc) mRNA): 1.58E+10; Total Flux 6 hours (luciferase (Luc) mRNA): 2.12E+10; Total Flux 24 hours (luciferase (Luc) mRNA): 7.19E+08 |
| Nonyl 8-((6-(heptadecan-9-yloxy)-6-oxohexyl)(2-hydroxyethyl)amino) octanoate [Compound 27] | – | – | – | – | – | – | – | – | Fold increase in total body Luc Flux relative to MC3 at 6 h (luciferase (Luc) mRNA; i.v. administration, 6 h): 0.31; Novel lipid/MC3 expression ratio, i.v. (luciferase (Luc) mRNA): 0.31; Total Flux 3 hours (luciferase (Luc) mRNA): 1.64E+10; Total Flux 6 hours (luciferase (Luc) mRNA): 1.03E+10; Total Flux 24 hours (luciferase (Luc) mRNA): 1.94E+09 |
